According to patent US11980774B2, “Illumination devices and related methods for phototherapeutic light treatments in the presence of vitamins” (priority 2021, dated 2024):

Test system: New York variant of SARS-CoV-2 (SARS-CoV-2 NY)
Assay: 425 nm light inhibition of SARS-CoV-2 NY in the presence of riboflavin in artificial saliva, virus titer
Type: cell-based
Details: FIG. 2

Q: What does the source list for `Cc1cc2nc3c(=O)[nH]c(=O)nc-3n(C[C@H](O)[C@H](O)[C@H](O)CO)c2cc1C` [riboflavin]?
A: change in SARS-CoV-2 NY viral load compared with the 0 μM RFN sample (10 μM RFN in artificial saliva, 425 nm light, beginning with doses as low as 3 J/cm^2): notable decreases; viral load of SARS-CoV-2 NY after treatment (10 μM RFN, 425 nm light 15 J/cm^2): below measurement background levels
